Reference: publication PMC10785037, “Mechanisms for cardiac calcium pump activation by its substrate and a synthetic allosteric modulator using fluorescence lifetime imaging” (PNAS Nexus, 2023)

How the values were obtained:
Format in all cases: biochemical
[1] = molecular target: T1, SERCA2a (cardiac sarcoplasmic reticulum Ca2+-ATPase) (Sus scrofa, UniProt P11607); test: NADH-coupled ATPase assay, ten-point concentration-response (activation)
T1 construct: gene ATP2A2; native SERCA2a in enriched pig cardiac SR microsomes
T1 sequence (P11607 1-997 isoform P11607-2): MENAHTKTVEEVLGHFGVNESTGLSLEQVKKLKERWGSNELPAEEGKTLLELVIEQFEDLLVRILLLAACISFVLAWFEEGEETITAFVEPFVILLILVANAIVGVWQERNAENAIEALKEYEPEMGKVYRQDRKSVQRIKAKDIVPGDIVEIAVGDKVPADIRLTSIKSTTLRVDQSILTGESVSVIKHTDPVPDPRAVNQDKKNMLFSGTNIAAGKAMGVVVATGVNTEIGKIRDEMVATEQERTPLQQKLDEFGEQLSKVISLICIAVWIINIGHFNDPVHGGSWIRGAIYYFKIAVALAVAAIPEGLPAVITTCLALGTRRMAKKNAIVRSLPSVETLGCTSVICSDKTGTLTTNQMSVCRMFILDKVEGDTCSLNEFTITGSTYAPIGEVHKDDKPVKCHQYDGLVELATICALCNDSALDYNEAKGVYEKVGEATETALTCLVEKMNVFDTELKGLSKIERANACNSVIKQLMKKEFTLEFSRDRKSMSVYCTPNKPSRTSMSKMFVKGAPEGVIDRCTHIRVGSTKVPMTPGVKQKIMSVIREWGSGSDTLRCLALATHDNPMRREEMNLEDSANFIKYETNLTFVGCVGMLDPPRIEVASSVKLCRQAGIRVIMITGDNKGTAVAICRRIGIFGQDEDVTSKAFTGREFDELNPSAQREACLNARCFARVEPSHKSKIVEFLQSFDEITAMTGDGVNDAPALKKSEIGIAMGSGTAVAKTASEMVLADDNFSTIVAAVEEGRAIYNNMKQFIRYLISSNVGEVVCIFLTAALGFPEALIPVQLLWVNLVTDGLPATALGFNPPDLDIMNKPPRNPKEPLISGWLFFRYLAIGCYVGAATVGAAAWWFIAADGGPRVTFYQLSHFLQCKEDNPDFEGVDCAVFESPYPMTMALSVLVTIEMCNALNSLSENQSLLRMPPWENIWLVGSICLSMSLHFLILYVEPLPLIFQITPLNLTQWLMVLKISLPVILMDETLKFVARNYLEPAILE

[2] = molecular target: T1, SERCA2a (cardiac sarcoplasmic reticulum Ca2+-ATPase); test: NADH-coupled ATPase assay (activation; bell-shaped curve, aggregation suspected at high concentration)
From the text: NADH-coupled ATPase assay (activation; bell-shaped curve, aggregation suspected at high concentration) on SERCA2a (cardiac sarcoplasmic reticulum Ca2+-ATPase) | CP-154526 also activates SERCA2a in the high nM to low µM range, with an observed maximal increase in Vmax

Na+/K+-ATPase NKA-α1 = molecular target: T2, Na+/K+-ATPase NKA-α1 (Sus scrofa, UniProt P05024); test: ATPase activity assay
T2 construct: gene ATP1A1

`Cc1ccc2cccc(NC(=O)c3ccc(OC(C)C)cc3)c2n1` [CDN1163, N-(2-methylquinolin-8-yl)-4-propan-2-yloxybenzamide] was tested, and the EC50 [1] was 2.3 µM.

In the case of `CCCCN(CC)c1nc(C)nc2c1c(C)cn2-c1c(C)cc(C)cc1C` [CP-154526, N-butyl-N-ethyl-2,5-dimethyl-7-(2,4,6-trimethylphenyl)pyrrolo[2,3-d]pyrimidin-4-amine], the “NADH-coupled ATPase assay (activation); bell-shaped curve, aggregation suspected” value [2] is reported as 28% maximal increase in Vmax at 2.5.

For `C[C@]12CC/C(=N\OCCN)C[C@@H]1C(=O)C[C@@H]1[C@@H]2CC[C@]2(C)C(=O)CC[C@@H]12` [istaroxime, (3E,5S,8R,9S,10R,13S,14S)-3-(2-aminoethoxyimino)-10,13-dimethyl-1,2,4,5,7,8,9,11,12,14,15,16-dodecahydrocyclopenta[a]phenanthrene-6,17-dione], the IC50 (Na+/K+-ATPase NKA-α1) was 0.47 µM.
